# Results reported in EP1566177A1, “The use of bisphosphonates for treating skin by stimulating of collagen synthesis” (Tigen Biotech Co., Ltd., priority 2004, dated 2005).
# How the values were obtained:
# Format in all cases: cell-based
# [1] = test system: fibroblasts isolated from human dermis; experiment: Western blot analysis of type 1 collagen expression, two-dimensional culture of dermal fibroblasts
# Excerpt: The levels of type 1 collagen in the 3-week cultured control group (3WC) and the 3-week cultured test group (3WR), which had been collected in Example 1-2), were compared with each other. For this purpose, each sample was subjected to Western blot analysis. In the Western blot analysis, each sample was electrophoresed on 8% SDS-PAGE gel, and the resulting collagen band was transferred to a nitrocellulose membrane and then treated with type 1 collagen monoclonal antibody (Abcam, Cambridge, UK) (see FIG. 2). In the Western blot analysis, actin was also used as a positive control group.
# Fibroblasts were isolated from skin dermis and subcultured, in the same manner as in Example 2. Then, the isolated fibroblasts were cultured in the second culture medium as described above under the same conditions for 2 days. Then, the cultured fibroblasts were supplied with a second culture medium containing 100 nM pamidronate at 3-day intervals and cultured in the medium for each period of 1 week, 2 weeks and 3 weeks. […]
# RT-PCR on each of the 1-week, 2-week and 3-week cultured control groups, the 1-week, 2-week and 3-week cultured test group administered with pamidronate, and the 1-week, 2-week and 3-week cultured positive control group administered with vitamin. […] The mRNA levels of type 1 collagen in the samples, as measured in the RT-PCR reactions, were shown in FIG. 4 for comparison with each other. […]
# [2] = test system: fibroblasts isolated from human dermis; experiment: RT-PCR analysis of type 1 collagen mRNA level, two-dimensional culture of dermal fibroblasts
# Procedure: Namely, total mRNA to be used in cDNA synthesis was isolated from the cells of the control and test groups using an RNeasy mini kit (QIAGEN, CA, USA). Then, the amount of the isolated total mRNA was calculated by measuring the absorbance at 260nm/280nm using an UV spectrophotometer (Eppendorf, Hamburg, Germany), thus quantifying the extracted mRNA and determining its purity (data not shown). Thereafter, 0.5 µg of the total mRNA was reacted with reverse transcriptase (Promega, WI, USA) using an oligo d(T) primer for one hour at 42 °C and for 5 minutes at 95 °C, and then the reaction was stopped at 4°C, thus synthesizing cDNA. The synthesized cDNA template was subjected to polymerase chain reaction (hereinafter, referred to as "PCR") using complementary primers of 5'-[sequence]-3' (SEQ ID NO: 1) (sense) and 5'-[sequence]-3' (SEQ ID NO: 2) (anti-sense). In the RT-PCR reaction, water was added to a reaction mixture of 0.5 µl of the template, 0.7 µl of each primer (10 pmole/µl) and PCR premix (Bioneer, Korea) to a final volume of 20 µl, and then, the aqueous mixture was pre-denatured at 94°C for 5 minutes using a thermal cycler and then subjected to 25 PCR cycles (each cycle consisting of 30 seconds at 94 °C, 30 seconds at 58 °C, and 30 seconds at 72 °C). Also, in the RT-PCR reaction, glyceraldehyde-3-phosphate dehydrogenase (GAPDH) was used as a positive control.
# Then, the isolated fibroblasts were cultured in the second culture medium as described above under the same conditions for 2 days. Then, the cultured fibroblasts were supplied with a second culture medium containing 100 nM pamidronate at 3-day intervals and cultured in the medium for each period of 1 week, 2 weeks and 3 weeks. Also, fibroblasts cultured in a second culture medium containing 1mM vitamin C were used as a positive control group, and fibroblasts cultured in a secondary culture medium containing no vitamin C and pamidronate was used as a control group. […]
# [3] = test system: fibroblasts isolated from human oral epithelium; experiment: RT-PCR analysis of type 1 collagen mRNA level, two-dimensional culture of oral fibroblasts; details: 100 ng/ml pamidronate together with 1mM vitamin C; cultured 1, 2 and 3 weeks (1WR, 2WR, 3WR) vs control medium without both
# Procedure: (§1) The epithelium naturally exuded from a patient who had been undergoing a surgical operation due to oral diseases was mixed with […] DMEM (LG-DMEM, glucose 1g/L, GIBCO, MO, USA) medium, a first culture medium, and the mixture was pre-centrifuged to isolate cells. The cells were ultra-centrifuged using Percoll solution (SIGMA, MD, USA), thus isolating only nucleated cells. The nucleated cells isolated as described above cultured in an incubator under conditions of 5% (v/v) CO2 and 37.5 °C while replacing a second culture medium (high-glucose DMEM medium containing 10% bovine fetal serum) at two-day intervals, and only fibroblasts were isolated from the culture medium.
# The isolated fibroblasts were cultured in said second culture medium under the same conditions for 2 days to saturate them. […]
# The collagen mRNA levels of the 1-week cultured control group (1WC), the 2-week cultured control group (2WC), the 3-week cultured control group (3WC), the 1-week cultured test group (1WR), the 2-week cultured test group (2WR) and the 3-week cultured group (3WR), which had been collected in Example 1-2), were measured and compared with each other. […]
# [4] = test system: fibroblasts isolated from human dermis; experiment: Three-dimensional culture of dermal fibroblasts on PLGA support, haematoxylin-eosin staining of collagen layer; details: 100 nM pamidronate together with 1 mM vitamin C; 4 weeks; control: vitamin C alone
# Procedure: A given amount of dermal tissue was excised from the skin of three normal persons. The excised human dermis from which an epidermal and fatty layer had been removed was finely cut and treated with collagenase so as to isolate dermis from epidermis. The isolated dermal tissue was cultured in 0.25% trypsin solution at 36 °C for 10 minutes. Then, the culture broth was vortexed to isolate fibroblasts. The isolated cells were collected and washed, and then cultured in a DMEM medium (GIBCO, MO, U.S.A.) containing 10% fetal bovine serum (FBS). At about 70% confluence, they were subcultured.
# A PLGA-based, disc-shaped polymer support (Innotech., Korea) with a diameter of 10 mm, a thickness of 3 mm, an average pore size of 300-500 µm and a porosity of 90%, was used in three-dimensional culture. The support was treated with 100 %(v/v), 90 %(v/v), 70 %(v/v) and then 10 %(v/v) ethanol in order, at 4 °C for each treatment, and washed with PBS (phosphate buffered saline) and a second culture medium followed by drying. Next, 100 µl of a suspension of 1 x 10^6 dermal fibroblasts cultured as described above was plated on the support and cultured in a culture dish with a diameter of 60 mm. After two hours, 6 ml of the second culture medium as described above was added to the cells, and the mixture was cultured in a shaking incubator (30rpm). […]
# [5] = test system: fibroblasts isolated from human oral epithelium; experiment: Western blot analysis of type 1 collagen protein level, two-dimensional culture of oral fibroblasts; details: 100 ng/ml pamidronate together with 1mM vitamin C; 3-week culture (3WR) vs control (3WC)
# Procedure: as §1
# The isolated fibroblasts were cultured in said second culture medium under the same conditions for 2 days to saturate them. Then, the saturated fibroblasts were cultured in a second culture medium containing 1mM vitamin C and 100 ng/ml pamidronate (Hanlim Pharm. Co., Ltd., Korea) for each period of 1 week, 2 weeks and 3 weeks, while replacing the medium at 3-day intervals. As a control group, a second culture medium containing no vitamin C and pamidronate was used.
# The levels of type 1 collagen in the 3-week cultured control group (3WC) and the 3-week cultured test group (3WR), which had been collected in Example 1-2), were compared with each other. […]
compound,measurement,setting,value
"NCCCC(O)(P(=O)(O)O)P(=O)(O)O [alendronate, 4-amino-1-hydroxybutylidene-1,1-bisphospnonic acid]",type 1 collagen protein (Western blot),"[1]; alendronate alone, same concentration as pamidronate (100 nM), cultured one week, FIG. 7",remarkably increased
same,mRNA level of type 1 collagen,"[2]; alendronate alone, same concentration as pamidronate (100 nM), cultured one week, FIG. 6",remarkably increased
"NCCC(O)(P(=O)(O)O)P(=O)(O)O [pamidronate, 3-amino-1-hydroxypropylidene-1,1-bisphosphonic acid]",mRNA level of type 1 collagen,[3],higher mRNA level than that of the 3-week cultured control group
same,layer of collagen adhered to the surface of the PLGA support,[4],much thicker than the case of addition of vitamin C alone
same,expression level of type 1 collagen,"[1]; 100 nM pamidronate alone, three weeks of culture, compared with single addition of 1mM vitamin C",remarkable increase
same,type 1 collagen protein level,[5],synthesized at a remarkably high level
same,mRNA level of type 1 collagen,"[2]; 100 nM pamidronate alone, cultured 1, 2 and 3 weeks",high regardless of culture period
O=C1O[C@H]([C@@H](O)CO)C(O)=C1O [vitamin C],mRNA level of type 1 collagen,"[2]; 1mM vitamin C alone (positive control), cultured 1, 2 and 3 weeks","increased rapidly in the initial stage of culture, but it was reduced with an increase in culture time"
